Measured values as given in patent US9452988B2, “Bendamustine derivatives and methods of using same” (Ignyta, Inc., priority 2012, dated 2016).

Tests used:
H-460 (NSCLC) = assay: MTS cell assay, H-460; type: cell-based, Human
Procedure: (§1) Human carcinoma cells (2,000 cells/well) were incubated with the desired concentration of the test molecule (0-200 μM) for 72 hours. The cells were then incubated with MTS solution (Promega) for 1-2 hours, and the compounds effects on cell proliferation was determined by measuring the absorbance at 490 nm. Cell growth was expressed as a percent of the appropriate control (placebo). […] All data reported was the mean±SE of three independent experiments.

MB-231 (HBC) = assay: MTS cell assay, MB-231; type: cell-based, Human; settings: 72 hours
Procedure: Charles River Labs athymic nude mice bearing MDA-MB-231 breast carcinoma cell line subcutaneous xenografts (5×10^6 cells in matrigel) were sacrificed to make a tumor isolate. Using sterile instruments and working aseptically, the tumors were removed from the euthanized animal. The tumor was placed in a 50 mL sterile conical tube and 5 mL of trypsin was added. The tumor was cut into small pieces and incubated at 37° C. for 30 minutes. After incubation, a cell strainer was placed on a second, sterile, 50 mL conical tube and the contents of the first tube were placed in the cell strainer. The tissue was forced through the filter using the flat end of a syringe plunger. The cell strainer was washed with 5 mLs of media containing FBS. The cells were spun down and the supernatant was discarded. The cells were resuspended in 20 mLs of complete media containing P/S and placed in a 75 cm flask.
as §1

[1] = Rat plasma pharmacokinetics, solution formulations of C16, cyclohexyl and 5-decanyl esters, 3 mg-eq/kg i.v.; type: in vivo; settings: solution formulation 3 mg-eq/kg i.v.
Procedure: (§2) Plasma and other tissues were prepared for high performance liquid chromatography (HPLC)/mass spectrometric analysis according to a standard protocol following protein precipitation with acetonitrile containing an internal standard. The samples were then analyzed for both bendamustine HCl and bendamustine esters of the invention and alprenolol (internal standard) via HPLC coupled with tandem mass spectrometry. Tissue samples were homogenized in sodium phosphate buffer and the value obtained from the assay was multiplied by 3 to correct for dilution during processing.
(§3) Adult animals (Charles River, Kingston, N.Y.; n=3 or 4/time point) were used in all experiments. The mice or rats were not fasted overnight prior to IV dose administration via the lateral tail vein. IV doses were administered in a fixed dose volume of 100 μL in mice or a dose volume of 1 mL/kg in rats. The mice were sacrificed by decapitation and trunk blood was collected into heparinized tubes at the sampling times stipulated. For blood collection, each rat (unanesthetized) was placed in a clear Plexiglas® restraining tube, and blood samples (approximately 0.25 mL) were drawn from a lateral tail vein into heparinized collection tubes at the sampling times stipulated. (Note: No pre-dose samples were obtained.) The exception to this procedure was the last sampling time in which the rats were sacrificed by decapitation and trunk blood was obtained rather than blood via a tail vein. The blood samples were placed on wet ice until centrifuged to separate plasma. The plasma fraction was transferred into clean, dry tubes, frozen on dry ice and stored at approximately −20° C. pending analysis. Whole brains and other highly perfused organs (liver, lung, spleen, kidney and heart) were rapidly removed at the predetermined time points and frozen on dry ice. All tissue samples were also stored at approximately −20° C. pending analysis.
(§4) The plasma concentration data for all mice and rats were entered into Excel spreadsheets in preparation for pharmacokinetic analysis. Mean pharmacokinetic parameters were estimated by non-compartmental analysis (Gibaldi and Perrier 1982) of the plasma concentration versus time data using WinNonlin software (Professional Version 4.1, Pharsight Corporation, Palo Alto, Calif.). The terminal rate constant for elimination from plasma (β) was estimated by linear regression of the terminal portion of the semi-logarithmic plasma concentration versus time curve. The apparent terminal half-life (t1/2) was calculated as 0.693 divided by β. The area under the plasma concentration versus time curve from time zero to the time of the last measurable concentration (AUC0-t) after a single dose was determined by the linear trapezoidal rule. The area from zero to infinity (AUC0-∞) was calculated as the sum of AUC0-t and the area extrapolated from the last measurable concentration to infinity (Clast/β). Concentrations pre-dose were all assumed to be zero for the purpose of calculation of the AUC. Any concentration that was below the limit of quantification (BLQ) after the last quantifiable sampling time was considered to be an empty value for the purpose of calculation of the AUC; it was treated as zero for the calculation of the mean concentration for a given sampling time.

[2] = Rat plasma, blood and organ pharmacokinetics after bendamustine C12 ester 30 mg/kg i.v.; type: in vivo; settings: 1 mL/kg
Procedure: as §2, §3, §4

[3] = Homo sapiens, NCI-H460, 72 hours
[4] = C12 ester Nanoparticle Formulation

In the case of `CCCCCCCCOC(=O)CCCc1nc2cc(N(CCCl)CCCl)ccc2n1C` [—C8H17, 4-{5-[Bis-(chloroethyl)-amino]-1-methyl-1H-benzimidazol-2-yl}butyric aid octyl ester], the IC50 (H-460 (NSCLC); 72 hours) is reported as 49 µM.

For `CCCCCCCCCCCCCCCOC(=O)CCCc1nc2cc(N(CCCl)CCCl)ccc2n1C` [—C15H31, 4-{5-[Bis-(chloroethyl)-amino]-1-methyl-1H-benzimidazol-2-yl}butyric acid pentadecyl ester], the IC50 (H-460 (NSCLC); [3]) was > 200 µM and the IC50 (MB-231 (HBC); Homo sapiens) was > 200 µM.

`CCCCCCCCCCCCCCCCOC(=O)CCCc1nc2cc(N(CCCl)CCCl)ccc2n1C` [C16 bendamustine ester, 4-{5-[Bis-(chloroethyl)-amino]-1-methyl-1H-benzimidazol-2-yl}butyric acid hexadecyl ester] showed an IC50 (H-460 (NSCLC); [3]) of 77.8 µM, an AUC(0-t) ([1]; plasma, iv, 3 mg/kg, Mean n = 3, read-out: AUC0-t of Ester in plasma) of 1210 ng·h/mL and an AUC(0-inf) ([1]; plasma, iv, 3 mg/kg, Mean n = 3, read-out: AUC0-∞ of Ester in plasma) of 1210 ng·h/mL. For the same compound, the clearance ([1]; plasma, iv, 3 mg/kg, Mean n = 3, read-out: CL of Ester) was 41 mL/min/kg, the Vd ([1]; plasma, iv, 3 mg/kg, Mean n = 3, read-out: Vd of Ester) was 1 L/kg and the half-life ([1]; plasma, iv, 3 mg/kg, Mean n = 3, read-out: t1/2 of Ester in plasma (converted)) was 0.28 h. The IC50 (MB-231 (HBC); Homo sapiens) was > 200 µM.

In the case of `CCCCCCCCCCCCOC(=O)CCCc1nc2cc(N(CCCl)CCCl)ccc2n1C` [Bendamustine C12 Ester, 4-{5-[Bis-(chloroethyl)-amino]-1-methyl-1H-benzimidazol-2-yl}butyric aid dodecyl ester], the IC50 (H-460 (NSCLC); 72 hours) is reported as 28.8 µM, the “AUC0-t of C12 Ester, Blood” value ([2]; C12 ester Liquid Formulation) is reported as 4424 ng·h/mL and the “AUC0-t of C12 Ester, Brain” value ([2]; C12 ester Liquid Formulation) is reported as 299 ng·h/mL. For the same compound, the “AUC0-t of C12 Ester, Kidney” value ([2]; C12 ester Liquid Formulation) was 2383 ng·h/mL, the “AUC0-t of C12 Ester, Liver” value ([2]; C12 ester Liquid Formulation) was 2564 ng·h/mL and the “AUC0-t of C12 Ester, Lung” value ([2]; C12 ester Liquid Formulation) was 12619 ng·h/mL. The “AUC0-t of C12 Ester, Spleen” value ([2]; C12 ester Liquid Formulation) was 25874 ng·h/mL, the “AUC0-∞ of C12 Ester, Kidney” value ([2]; C12 ester Liquid Formulation) was 2605 ng·h/mL and the “AUC0-∞ of C12 Ester, Liver” value ([2]; C12 ester Liquid Formulation) was 2586 ng·h/mL. For the same compound, the “AUC0-∞ of C12 Ester, Lung” value ([2]; C12 ester Liquid Formulation) was 13246 ng·h/mL, the “AUC0-∞ of C12 Ester, Spleen” value ([2]; C12 ester Liquid Formulation) was 25927 ng·h/mL and the “t1/2 of C12 Ester, Kidney” value ([2]; C12 ester Liquid Formulation) was 5.3 h. For the same compound, the “t1/2 of C12 Ester, Liver” value ([2]; C12 ester Liquid Formulation) was 0.8 h, the “t1/2 of C12 Ester, Lung” value ([2]; C12 ester Liquid Formulation) was 7.6 h and the “t1/2 of C12 Ester, Spleen” value ([2]; C12 ester Liquid Formulation) was 3.1 h. The “AUC0-t of C12 Ester, Blood” value [2, 4] was 951 ng·h/mL, the “AUC0-t of C12 Ester, Brain” value [2, 4] was 149 ng·h/mL and the “AUC0-t of C12 Ester, Kidney” value [2, 4] was 1766 ng·h/mL. For the same compound, the “AUC0-t of C12 Ester, Liver” value [2, 4] was 13355 ng·h/mL, the “AUC0-t of C12 Ester, Lung” value [2, 4] was 28327 ng·h/mL and the “AUC0-t of C12 Ester, Spleen” value [2, 4] was 13111 ng·h/mL. For the same compound, the “AUC0-∞ of C12 Ester, Kidney” value [2, 4] was 1802 ng·h/mL, the “AUC0-∞ of C12 Ester, Liver” value [2, 4] was 13586 ng·h/mL and the “AUC0-∞ of C12 Ester, Lung” value [2, 4] was 32297 ng·h/mL. The “AUC0-∞ of C12 Ester, Spleen” value [2, 4] was 13578 ng·h/mL, the “t1/2 of C12 Ester, Kidney” value [2, 4] was 4.9 h and the “t1/2 of C12 Ester, Liver” value [2, 4] was 4.5 h. The “t1/2 of C12 Ester, Lung” value [2, 4] was 8.5 h, the “t1/2 of C12 Ester, Spleen” value [2, 4] was 5.4 h and the IC50 (MB-231 (HBC)) was 33.3 µM.

In the case of `CCCCCCOC(=O)CCCc1nc2cc(N(CCCl)CCCl)ccc2n1C` [—C6H13, 4-{5-[Bis-(chloroethyl)-amino]-1-methyl-1H-benzimidazol-2-yl}butyric acid hexyl ester], the IC50 (H-460 (NSCLC); [3]) is reported as 7.4 µM and the IC50 (MB-231 (HBC); Homo sapiens) is reported as 43.7 µM.

`CCCCOC(=O)CCCc1nc2cc(N(CCCl)CCCl)ccc2n1C` [—C4H9, 4-{5-[Bis-(chloroethyl)-amino]-1-methyl-1H-benzimidazol-2-yl}butyric acid butyl ester] showed an IC50 (H-460 (NSCLC); [3]) of 15.7 µM and an IC50 (MB-231 (HBC); Homo sapiens) of 13.3 µM.

In the case of `CCCCCC(CCCC)OC(=O)CCCc1nc2cc(N(CCCl)CCCl)ccc2n1C` (stereo not drawn) [5-decanyl ester, 4-{5-[Bis-(chloroethyl)-amino]-1-methyl-1H-benzimidazol-2-yl}butyric acid 5-decyl ester], the “Plasma levels of Ester” value [1] is reported as “All < MQL”.

In the case of `Cn1c(CCCC(=O)OC2CCCCC2)nc2cc(N(CCCl)CCCl)ccc21` [Cy-hexyl bendamustine ester, 4-{5-[Bis-(chloroethyl)-amino]-1-methyl-1H-benzimidazol-2-yl}butyric acid cyclohexyl ester], the “Plasma levels of Ester” value [1] is reported as “All < MQL”.

Work on `CCCCCCCCCCOC(=O)CCCc1nc2cc(N(CCCl)CCCl)ccc2n1C` [—C10H21, 4-{5-[Bis-(chloroethyl)-amino]-1-methyl-1H-benzimidazol-2-yl}butyric acid decyl ester] yielded an IC50 (H-460 (NSCLC); [3]) of 23.8 µM and an IC50 (MB-231 (HBC); Homo sapiens) of 38.9 µM.
